Experiments:
[1] = test system: phosphorus and calcium levels in the urine of rats; test: Urinary excretion of phosphate and calcium in rats (16 h overnight urine); assay type: in vivo, rat; conditions: rats, oral gavage, 16 h post-dose
[2] = biological target: T1, Human NHE3 (Homo sapiens, UniProt P48764); test: Cell-based NHE3 activity under prompt conditions (OK cells, BCECF pH recovery), human NHE3; conditions: prompt conditions
T1 construct: expressed in transfected cells; host or cells: Opossum kidney (OK) cells (ATCC), electroporation
T1 sequence (P48764 26-834): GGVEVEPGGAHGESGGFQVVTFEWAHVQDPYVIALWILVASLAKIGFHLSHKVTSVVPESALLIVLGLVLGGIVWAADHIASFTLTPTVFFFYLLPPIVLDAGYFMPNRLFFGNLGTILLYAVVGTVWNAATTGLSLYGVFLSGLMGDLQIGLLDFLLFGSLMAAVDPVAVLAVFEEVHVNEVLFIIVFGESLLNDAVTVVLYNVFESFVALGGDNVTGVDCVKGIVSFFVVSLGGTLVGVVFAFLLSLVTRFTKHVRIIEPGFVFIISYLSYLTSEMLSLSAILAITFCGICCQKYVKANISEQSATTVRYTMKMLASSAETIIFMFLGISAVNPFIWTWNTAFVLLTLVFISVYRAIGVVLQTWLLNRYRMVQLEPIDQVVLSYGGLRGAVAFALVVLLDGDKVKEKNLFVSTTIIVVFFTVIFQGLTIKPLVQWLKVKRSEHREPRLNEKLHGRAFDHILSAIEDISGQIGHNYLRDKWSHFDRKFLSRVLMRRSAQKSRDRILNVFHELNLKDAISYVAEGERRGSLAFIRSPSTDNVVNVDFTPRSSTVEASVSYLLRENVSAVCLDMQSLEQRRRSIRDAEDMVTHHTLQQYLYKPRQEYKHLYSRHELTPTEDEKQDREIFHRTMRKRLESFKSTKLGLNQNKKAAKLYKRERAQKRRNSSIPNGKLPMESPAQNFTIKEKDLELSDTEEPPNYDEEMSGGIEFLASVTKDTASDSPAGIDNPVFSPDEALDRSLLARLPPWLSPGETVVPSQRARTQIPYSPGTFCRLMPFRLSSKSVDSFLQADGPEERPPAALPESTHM
In short: (§1)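 Fluorometric NHE3 antiport assay in opossum kidney cells carrying rat or human NHE3, using BCECF pH recovery after NH4Cl-prepulse acid loading. pIC50 values derive from initial rates averaged across at least two replicates.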

[3] = test system: absorption of sodium from the intestinal lumen; test: Inhibition of intestinal sodium absorption: urinary sodium (uNa) 16 h after single oral dose in rats; assay type: in vivo, rat; conditions: oral gavage, 16 h post-dose
In short: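 Urinary sodium mass over the 16 h after one oral gavage dose, measured by cation-exchange ion chromatography, reported as percent of water-vehicle group; ANOVA plus Dunnett's post hoc test. Groups of six 8-week-old Sprague-Dawley rats, housed individually in metabolic cages post-dose, fed and watered freely.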

[4] = biological target: T2, Rat NHE3 (Rattus norvegicus, UniProt P26433); test: Cell-based NHE3 activity under prompt conditions (OK cells, BCECF pH recovery), rat NHE3; conditions: prompt conditions; for IC50: read-out: Prompt Rat NHE3 pIC50 (converted)
T2 construct: expressed in transfected cells; host or cells: Opossum kidney (OK) cells (ATCC), electroporation
In short: as §1

[5] = test system: absorption of sodium from the intestinal lumen; test: Fecal form score (FFS) 16 h after oral dose in rats; assay type: in vivo, rat; conditions: oral gavage, 16 h post-dose, scale 1-5
In short: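 Fecal form was scored at 16 h post-dose on a 1–5 wetness scale (normal pellet to liquid stream), with two independent observations averaged across six rats per group. Animals were 8-week-old Sprague-Dawley rats given test compound or water orally in the late afternoon and kept in metabolic cages.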

T2 sequence (P26433 29-831): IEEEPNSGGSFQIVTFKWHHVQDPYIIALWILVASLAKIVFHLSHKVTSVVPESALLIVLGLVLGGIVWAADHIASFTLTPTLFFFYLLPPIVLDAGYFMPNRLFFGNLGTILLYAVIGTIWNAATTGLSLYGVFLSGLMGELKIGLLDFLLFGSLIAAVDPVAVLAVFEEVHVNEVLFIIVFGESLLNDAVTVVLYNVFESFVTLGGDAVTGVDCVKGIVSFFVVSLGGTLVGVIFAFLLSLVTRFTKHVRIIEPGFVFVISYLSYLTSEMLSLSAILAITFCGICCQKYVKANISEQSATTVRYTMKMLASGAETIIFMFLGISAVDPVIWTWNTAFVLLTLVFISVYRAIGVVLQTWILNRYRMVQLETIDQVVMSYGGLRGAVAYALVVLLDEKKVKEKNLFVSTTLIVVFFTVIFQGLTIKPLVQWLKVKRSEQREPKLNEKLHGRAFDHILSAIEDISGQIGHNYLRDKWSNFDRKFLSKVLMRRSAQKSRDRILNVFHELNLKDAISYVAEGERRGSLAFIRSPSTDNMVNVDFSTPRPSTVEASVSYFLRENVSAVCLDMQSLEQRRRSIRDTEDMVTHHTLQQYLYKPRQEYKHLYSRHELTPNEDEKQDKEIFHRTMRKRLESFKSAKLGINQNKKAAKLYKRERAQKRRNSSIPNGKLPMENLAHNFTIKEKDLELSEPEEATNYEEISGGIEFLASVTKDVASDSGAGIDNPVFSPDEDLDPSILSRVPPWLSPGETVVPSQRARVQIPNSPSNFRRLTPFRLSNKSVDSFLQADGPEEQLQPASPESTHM

Prompt Human NHE3 pIC50 [2]	Prompt Rat NHE3 pIC50 [4]	IC50 [4] [nM]	Compound	Urine P % of control ([1]; dose 10 mg/kg) [%]	Urine Na % of control ([3]; dose 10 mg/kg) [%]	Fecal Form Score average ([5]; dose 10 mg/kg)	Urine P % of control ([1]; dose 1 mg/kg) [%]	Urine P % of control ([1]; dose 3 mg/kg) [%]	Urine Na % of control ([3]; dose 1 mg/kg) [%]	Urine Na % of control ([3]; dose 3 mg/kg) [%]	Fecal Form Score average ([5]; dose 1 mg/kg)	Fecal Form Score average ([5]; dose 3 mg/kg)
8.70	8.00	–	CN1Cc2c(Cl)cc(Cl)cc2[C@H](c2cccc(S(=O)(=O)NCCOCCOCCOCCNC(=O)CN(CCN(CC(=O)O)CC(=O)NCCOCCOCCOCCNS(=O)(=O)c3cccc([C@@H]4CN(C)Cc5c(Cl)cc(Cl)cc54)c3)CC(=O)O)c2)C1 [compound 67]	67	4	2	–	–	–	–	–	–
<5.00	<5.00	–	O=C(NCCCCNC(=O)NCCOCCOCCNS(=O)(=O)c1ccc(O[C@H]2c3cc(Cl)cc(Cl)c3C[C@@H]2N2CCCCC2)cc1)NCCOCCOCCNS(=O)(=O)c1ccc(O[C@H]2c3cc(Cl)cc(Cl)c3C[C@@H]2N2CCCCC2)cc1 [compound 68]	97	70	1	–	–	–	–	–	–
6.70	6.60	–	CN1Cc2c(Cl)cc(Cl)cc2[C@H](c2cccc(S(=O)(=O)NCCOCCOCCOCCNC(=O)CN3CCN(c4nc(N5CCN(CC(=O)NCCOCCOCCOCCNS(=O)(=O)c6cccc([C@@H]7CN(C)Cc8c(Cl)cc(Cl)cc87)c6)CC5)nc(N5CCN(CC(=O)NCCOCCOCCOCCNS(=O)(=O)c6cccc([C@@H]7CN(C)Cc8c(Cl)cc(Cl)cc87)c6)CC5)n4)CC3)c2)C1 [compound 69]	78	82	1	–	–	–	–	–	–
7.20	6.70	–	CN1Cc2c(Cl)cc(Cl)cc2[C@H](c2cccc(S(=O)(=O)NCCOCCOCCOCCNC(=O)NCCN3CCN(c4nc(N5CCN(CCNC(=O)NCCOCCOCCOCCNS(=O)(=O)c6cccc([C@@H]7CN(C)Cc8c(Cl)cc(Cl)cc87)c6)CC5)nc(N5CCN(CCNC(=O)NCCOCCOCCOCCNS(=O)(=O)c6cccc([C@@H]7CN(C)Cc8c(Cl)cc(Cl)cc87)c6)CC5)n4)CC3)c2)C1 [compound 70]	83	96	1	–	–	–	–	–	–
7.00	6.50	–	CN1Cc2c(Cl)cc(Cl)cc2[C@H](c2cccc(S(=O)(=O)NCCOCCOCCOCCNC(=O)CN(CC(=O)NCCOCCOCCOCCNS(=O)(=O)c3cccc([C@@H]4CN(C)Cc5c(Cl)cc(Cl)cc54)c3)[C@@H]3CCCC[C@H]3N(CC(=O)NCCOCCOCCOCCNS(=O)(=O)c3cccc([C@@H]4CN(C)Cc5c(Cl)cc(Cl)cc54)c3)CC(=O)NCCOCCOCCOCNS(=O)(=O)c3cccc([C@@H]4CN(C)Cc5c(Cl)cc(Cl)cc54)c3)c2)C1 [compound 71]	40	80	1	–	–	–	–	–	–

Further lines, the compound ahead of its results:

Compound	Prompt Human NHE3 pIC50 [2]	Prompt Rat NHE3 pIC50 [4]	IC50 [4] [nM]	Urine P % of control ([1]; dose 10 mg/kg) [%]	Urine Na % of control ([3]; dose 10 mg/kg) [%]	Fecal Form Score average ([5]; dose 10 mg/kg)	Urine P % of control ([1]; dose 1 mg/kg) [%]	Urine P % of control ([1]; dose 3 mg/kg) [%]	Urine Na % of control ([3]; dose 1 mg/kg) [%]	Urine Na % of control ([3]; dose 3 mg/kg) [%]	Fecal Form Score average ([5]; dose 1 mg/kg)	Fecal Form Score average ([5]; dose 3 mg/kg)
O=C(CCOCCOCCOCCOCCOCCC(=O)NCCOCCOCCOCCNS(=O)(=O)c1ccc(OC2c3ccccc3CC2N2CCCCC2)cc1)NCCOCCOCCOCCNS(=O)(=O)c1ccc(OC2c3ccccc3CC2N2CCCCC2)cc1 (stereo not drawn) [compound 53]	7.40	7.45	–	59	100	1	–	–	–	–	–	–
CN1Cc2c(Cl)cc(Cl)cc2[C@H](c2cccc(S(=O)(=O)NCCOCCOCCOCCNC(=O)c3cc(C(=O)NCCOCCOCCOCCNS(=O)(=O)c4cccc([C@@H]5CN(C)Cc6c(Cl)cc(Cl)cc65)c4)cc(C(=O)NCCOCCOCCOCCNS(=O)(=O)c4cccc([C@@H]5CN(C)Cc6c(Cl)cc(Cl)cc65)c4)c3)c2)C1 [compound 56]	7.00	6.90	–	50	15	2	–	–	–	–	–	–
CN1Cc2c(Cl)cc(Cl)cc2[C@H](c2cccc(S(=O)(=O)NCCOCCOCCOCCNC(=O)CN(CC(=O)NCCOCCOCCOCCNS(=O)(=O)c3cccc([C@@H]4CN(C)Cc5c(Cl)cc(Cl)cc54)c3)CC(=O)NCCOCCOCCOCCNS(=O)(=O)c3cccc([C@@H]4CN(C)Cc5c(Cl)cc(Cl)cc54)c3)c2)C1 [compound 57]	7.50	7.10	–	75	25	3	–	–	–	–	–	–
CN1Cc2c(Cl)cc(Cl)cc2[C@H](c2cccc(S(=O)(=O)NCCOCCOCCOCCNC(=O)CN3CCN(CC(=O)NCCOCCOCCOCCNS(=O)(=O)c4cccc([C@@H]5CN(C)Cc6c(Cl)cc(Cl)cc65)c4)CCN(CC(=O)NCCOCCOCCOCCNS(=O)(=O)c4cccc([C@@H]5CN(C)Cc6c(Cl)cc(Cl)cc65)c4)CCN(CC(=O)NCCOCCOCCOCCNS(=O)(=O)c4cccc([C@@H]5CN(C)Cc6c(Cl)cc(Cl)cc65)c4)CC3)c2)C1 [compound 58]	7.30	6.30	–	68	82	1	–	–	–	–	–	–
NCCOCCOCCNS(=O)(=O)c1ccc(O[C@H]2c3ccccc3C[C@@H]2N2CCCCC2)cc1 [compound 60]	7.10	6.35	–	92	67	1	–	–	–	–	–	–
CN1Cc2c(Cl)cc(Cl)cc2[C@H](c2cccc(S(=O)(=O)NCCOCCOCCOCCNC(=O)CC(O)(CC(=O)NCCOCCOCCOCCNS(=O)(=O)c3cccc([C@@H]4CN(C)Cc5c(Cl)cc(Cl)cc54)c3)C(=O)NCCOCCOCCOCCNS(=O)(=O)c3cccc([C@@H]4CN(C)Cc5c(Cl)cc(Cl)cc54)c3)c2)C1 [compound 61]	7.80	7.00	–	67	21	3	96	70	93	50	1	1
NCCOCCOCCNS(=O)(=O)c1ccc(O[C@H]2c3cc(Cl)cc(Cl)c3C[C@@H]2N2CCCCC2)cc1 [compound 62]	7.25	<5.00	–	77	121	1	–	–	–	–	–	–
CN1Cc2c(Cl)cc(Cl)cc2[C@H](c2cccc(S(=O)(=O)NCCOCCOCCOCCNC(=O)NCCCN(CCCNC(=O)NCCOCCOCCOCCNS(=O)(=O)c3cccc([C@@H]4CN(C)Cc5c(Cl)cc(Cl)cc54)c3)CCCNC(=O)NCCOCCOCCOCCNS(=O)(=O)c3cccc([C@@H]4CN(C)Cc5c(Cl)cc(Cl)cc54)c3)c2)C1 [compound 64]	8.20	7.40	–	66	34	1	–	–	–	–	–	–
O=C(O)CN(CCN(CC(=O)O)CC(=O)NCCOCCOCCNS(=O)(=O)c1ccc(O[C@H]2c3ccccc3C[C@@H]2N2CCCCC2)cc1)CC(=O)NCCOCCOCCNS(=O)(=O)c1ccc(O[C@H]2c3ccccc3C[C@@H]2N2CCCCC2)cc1 [compound 65]	8.00	–	1.41	85	93	1	–	–	–	–	–	–
O=C(NCCCCNC(=O)NCCOCCOCCNS(=O)(=O)c1ccc(O[C@H]2c3ccccc3C[C@@H]2N2CCCCC2)cc1)NCCOCCOCCNS(=O)(=O)c1ccc(O[C@H]2c3ccccc3C[C@@H]2N2CCCCC2)cc1 [compound 66]	8.35	–	4.47	30	35	1	–	–	–	–	–	–
